Data on 18 compounds can be found in patent US20080004271A1, “Inhibitors of TNFalpha, PDE4 and B-RAF, compositions thereof and methods of use therewith” (priority 2006, published 2008).

Series [1] has as its system A375 cells. Description: Alamar Blue Viability Assay. The following applies: Homo sapiens, A-375, 72 h, 3 days. Format: cell-based. The method, boiled down:
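A375 cells (1,000/well) plated overnight, then treated in triplicate at 0.6–60 μM final, 0.2% DMSO, for 3 days at 37° C. Viability by Alamar Blue fluorescence (ex 530/em 590 nm, 4 h); percent of DMSO control used to plot IC50 curves.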
For orientation: Resazurin is reduced to fluorescent resorufin, in cell work by metabolically active cells.

Series [2] has as its system pMEK1/2 in A375 cells. Description: A375 pMEK1/2 Meso Scale Assay. Format: cell-based. The following applies: Homo sapiens, A-375, 2 h; A375 pMEK1/2, about two hours incubation. The method, then: On the afternoon of Day 1, cells are plated in a 96-well flat bottom cell culture plate at about 50,000 cells/well in a volume of 100 μl. On the morning of Day 2, serial dilutions of test compound(s) are added to the plate. The plate is incubated for about two hours at 37° C., […]. The plate is blocked about five minutes before the compound incubation step is completed by adding 150 μl/well of MSD (Meso Scale Discovery) blocking solution-A (prepared with 20 ml 1× Tris wash buffer (25 ml of 10× Tris buffer+225 ml deionized water) and 600 mg MSD blocker A) and incubating with vigorous shaking at room temperature for one hour. The plate is washed 4× with 1× Tris wash buffer.
Cells are harvested and lysates prepared by removing medium, washing 1× with ice-cold PBS (calcium and magnesium free), adding 50 μl/well Complete Tris buffer and incubating with shaking at 4° C. for one hour. Lysate samples (25 μl) are added to an MSD Multi-Spot plate and incubated with vigorous shaking at room temperature for two hours. The plate is washed 1× with Tris wash buffer.
25 μl/well of […] detection antibody (Anti-pMEK1/2 antibody; SULFO-TAG labeled, light sensitive) in 3 ml of cold antibody dilution buffer (1 ml blocking solution-A, 1.82 ml 1× Tris wash buffer, 150 μl 2% MSD blocker D-M and 30 μl 10% MSD blocker D-R) is added and the plate is incubated with vigorous shaking at room temperature in the dark for one hour. The plate is washed 1× with Tris wash buffer.
150 μl/well of 1× MSD Read buffer T (with surfactant) is added to the plate and the plate is read using a MSD Sector instrument.

The target in series [3] is T1, V600E mutant B-RAF (Homo sapiens, UniProt P15056, V600E).
T1 construct: purchased Upstate
T1 sequence (P15056 whole entry V600E): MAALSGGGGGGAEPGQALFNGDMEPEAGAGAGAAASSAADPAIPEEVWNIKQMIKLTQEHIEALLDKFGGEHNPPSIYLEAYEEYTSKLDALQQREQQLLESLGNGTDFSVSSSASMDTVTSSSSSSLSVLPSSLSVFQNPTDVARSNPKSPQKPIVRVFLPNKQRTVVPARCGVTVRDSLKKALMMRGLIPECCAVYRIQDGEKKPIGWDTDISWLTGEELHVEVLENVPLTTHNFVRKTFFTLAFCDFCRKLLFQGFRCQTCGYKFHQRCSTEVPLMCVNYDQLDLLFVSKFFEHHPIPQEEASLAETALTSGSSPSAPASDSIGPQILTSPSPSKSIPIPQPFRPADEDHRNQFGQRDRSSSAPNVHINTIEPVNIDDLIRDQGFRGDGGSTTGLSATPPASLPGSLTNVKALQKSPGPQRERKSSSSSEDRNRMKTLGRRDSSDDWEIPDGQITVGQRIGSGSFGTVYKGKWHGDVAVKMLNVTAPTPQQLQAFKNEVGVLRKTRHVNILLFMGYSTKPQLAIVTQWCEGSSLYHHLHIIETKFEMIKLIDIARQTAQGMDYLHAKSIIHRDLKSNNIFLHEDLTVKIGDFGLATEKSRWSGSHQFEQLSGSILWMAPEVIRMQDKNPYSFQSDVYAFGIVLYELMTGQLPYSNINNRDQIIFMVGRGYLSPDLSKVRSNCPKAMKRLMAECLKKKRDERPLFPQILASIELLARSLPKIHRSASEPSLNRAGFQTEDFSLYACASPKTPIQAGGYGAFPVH
Description: V600E Mutant B-RAF 33P Assay. Format: biochemical.

Molecules are shown by their SMILES.

The compound `NC(=O)c1sc2ncnc(-c3cc4c(c(OCc5ccccc5)c3)CCO4)c2c1N` [Example 5.2.140, 5-amino-4-(4-(benzyloxy)-2,3-dihydrobenzofuran-6-yl)thieno[2,3-d]pyrimidine-6-carboxamide] returned a melting point of 239 °C.
The same measure, in the same setting: with `NC(=O)c1sc2ncnc(-c3cc(O)c4c(c3)OCC4)c2c1N` [Example 5.2.141, 5-amino-4-(4-hydroxy-2,3-dihydrobenzofuran-6-yl)thieno[2,3-d]pyrimidine-6-carboxamide] the figure was 285 °C; with `NC(=O)c1sc2ncnc(-c3cccc(NC(=O)Nc4ccncc4)c3)c2c1N` [Example 5.2.166, 5-amino-4-{3-[(4-pyridylamino)carbonylamino]phenyl}-thiopheno[2,3-d]pyrimidine-6-carboxamide], 177 to 179 °C; with `NC(=O)c1sc2ncnc(-c3cccc(NC(=O)Nc4cccnc4)c3)c2c1N` [Example 5.2.167, 5-amino-4-{3-[(3-pyridylamino)carbonylamino]phenyl}-thiopheno[2,3-d]pyrimidine-6-carboxamide], 199 to 200 °C.
With `NC(=O)c1sc2ncnc(-c3cccc(NC(=O)Nc4cccc(C(F)(F)F)c4)c3)c2c1N` [Example 5.2.169, 5-amino-4-[3-({[3-(trifluoromethyl)phenyl]amino}-carbonylamino)phenyl]thiopheno[2,3-d]pyrimidine-6-carboxamide], the melting point is 201 to 203 °C.
Still for that read-out and setting: with `NC(=O)c1sc2ncnc(-c3cccc(NC(=O)Nc4ccccc4C(F)(F)F)c3)c2c1N` [Example 5.2.170, 5-amino-4-[3-({[2-(trifluoromethyl)phenyl]amino}-carbonylamino)phenyl]thiopheno[2,3-d]pyrimidine-6-carboxamide] the figure was 172 to 175 °C.
For `Cc1nc(-c2ccc(Cl)c(Cl)c2)c2c(N)c(C(N)=O)sc2n1` [Example 270], the values for the IC50 in series [1], in series [2] and in series [3] were 0.1 to 10 µM, 20 to 30 µM and 0.1 to 10 µM, respectively.
With `CC(C)Cc1nc(-c2ccc(Cl)c(Cl)c2)c2c(N)c(C(N)=O)sc2n1` [Example 271], the IC50 in series [1] was 10 to 20 µM; in series [2], 30 to 60 µM; in series [3], 0.1 to 10 µM.
In the case of `CC(C)[C@H](CO)Nc1nc(-c2ccc(Cl)c(Cl)c2)c2c(N)c(C(N)=O)sc2n1` [Example 273], the IC50 in series [1] lay in the range of 10 to 20 µM; in series [2], 0.1 to 10 µM; in series [3], 0.1 to 10 µM.
As to `Cc1ccc(-c2nc(NC(C)(C)CO)nc3sc(C(N)=O)c(N)c23)cc1O` [Example 274], the IC50 in series [1], in series [2] and in series [3] was 0.1 to 10 µM each time.
Regarding `COc1cncc(-c2ncnc3sc(C(N)=O)c(N)c23)c1` [Example 275], the IC50 is 10 to 20 µM in series [1], 10 to 20 µM in series [2] and 0.1 to 10 µM in series [3].
Regarding `COc1cncc(-c2nc(C)nc3sc(C(N)=O)c(N)c23)c1` [Example 276], the values for the IC50 in series [1], in series [2] and in series [3] were 10 to 20 µM, over 60 µM and 0.1 to 10 µM, respectively.
The corresponding values for `NC(=O)c1sc2ncnc(-c3cc(O)cc(Cl)c3)c2c1N` [Example 280] are 0.1 to 10 µM, 0.1 to 10 µM and 0.1 to 10 µM.
Turning to `CC(C)(CN)Nc1nc(-c2cccc(NC(=O)Nc3ccc(C(F)(F)F)cc3)c2)c2c(N)c(C(N)=O)sc2n1` [Example 282], the IC50 in series [1] lay within 10 to 20 µM; in series [2], 10 to 20 µM; in series [3], 0.1 to 10 µM.
As to `NC(=O)c1sc2ncnc(-c3cccc(NC(=O)Cc4ccccc4)c3)c2c1N` [Example 291], the IC50 was 10 to 20 µM in series [1], 0.1 to 10 µM in series [2] and 0.1 to 10 µM in series [3].
Regarding `NC(=O)c1sc2ncnc(-c3cccc(NC(=O)Nc4ccncc4)c3)c2c1N` [Example 292], the IC50 in series [1] was 10 to 20 µM; in series [2] it was over 60 µM; in series [3] it was 0.1 to 10 µM.
In the case of `NC(=O)c1sc2ncnc(-c3cccc(NC(=O)Nc4cccc(C(F)(F)F)c4)c3)c2c1N` [Example 295], the IC50 in series [1], in series [2] and in series [3] was 0.1 to 10 µM throughout.
For the compound `NC(=O)c1sc2ncnc(-c3cccc(NC(=O)Nc4ccccc4C(F)(F)F)c3)c2c1N` [Example 296], the figures for the IC50 in series [1], in series [2] and in series [3] were 10 to 20 µM, 30 to 60 µM and 0.1 to 10 µM, respectively.

What is called melting point is the temperature of the solid-liquid transition. What is called IC50 is the point on the concentration scale where inhibition reaches its midpoint. A high value points to a need for much substance.
